The numbers were not newly measured in patent US9398745B2, “Organic composition for protection of crops against black frost and the method for its application” (priority 2014, dated 2016), which cites them from elsewhere.

The subject of the data set is animals. To be noted: tests performed on animals.

Take `CC(O)CO` (stereo not shown) [1,2 propanediol]: the toxicity entry is reported as “low toxicity”.
